From patent US12568960B2, “Adjuvant combinations as foliar uptake accelerator for herbicidal compositions” (Bayer Aktiengesellschaft, priority 2019, dated 2026) come the findings set out here.

One data set concerns cuticula of apple leaves. The experiment in a line: Membrane (cuticle) penetration test. How it is done: The properties of the adjuvant combinations according to the invention as penetration enhancers were measured in a membrane penetration test on the cuticula of apple leaves.
Determination of bioavailability of various herbicides, plant growth regulators (PGRs) and safeners by cuticle penetration test.
The leaf cuticles were isolated enzymatically as described in the literature. The stomata-free cuticles were first dried under air and introduced into stainless steel diffusion cells. After the application of the test liquids to the original top side of the leaf and evaporation of liquid, the diffusion cells were transferred into thermostat blocks and loaded with water. At regular intervals, aliquot samples were taken, and the amount of active ingredient diffused was determined by means of HPLC. […] Detection was effected with a DAD detector. The results given in each case are the geometric penetration averages at the average measurement times. According to the variance, 10 repeat measurements were conducted.
Typically, a spray solution of the active ingredient (0.5 g of active ingredient/l) was produced. An aliquot was applied to an apple cuticle and left to dry. The operation was repeated 10 times. The amount absorbed through the cuticles in the uptake solution is determined by HPLC as described above. The measurements were made after 0, 6, 12, 24, 36 or 48 h.

A short description of data set [1]: Dynamic surface tension, bubble pressure method. Type of data set: physicochemical. Particulars: 6 g/l. The protocol:
Dynamic surface tension was determined via the bubble pressure method (BP2100 tensiometer, Krüss).

Where [2] appears, read: Table 7, bixlozone standard SC formulation, no adjuvant.
Setting [3] is: Table 19, bixlozone SC formulation, no adjuvant.
The mark [4] stands for this setting: Table 26, bixlozone EC formulation, no adjuvant.
Where [5] appears, read: Table 24, Compound 3 WP20 formulation, cuticle from 2016, no adjuvant.
The mark [6] stands for this setting: Table 12, Rinskor EC formulation, adjuvant 2 g/l.
Setting [7] is: Table 31, Compound 6 WP20 formulation, no adjuvant.
The mark [8] stands for this setting: Table 30, Compound 5 WP20 formulation, no adjuvant.
Setting [9] is: Table 20, prohexadione-Ca EC formulation, no adjuvant.
Setting [10] is: Table 8, mefenpyr-diethyl SC formulation, no adjuvant.
Where [11] appears, read: Table 9, mefenpyr-diethyl SC formulation, no adjuvant.

For `CS(=O)(=O)c1ccc(C(=O)C2C(=O)CCCC2=O)c(Cl)c1COCC(F)(F)F` [Tembotrione], in the data set on cuticula of apple leaves (apple, 6 h, 0.5 g/l), the “Cuticle penetration 6 h in %” value is 0%. In the data set with cuticula of apple leaves (apple, 12 h, 0.5 g/l), the “Cuticle penetration 12 h in %” value is 0%.

`CC1(C)CON(Cc2ccc(Cl)cc2Cl)C1=O` [Bixlozone, 2-(2,4-Dichlorobenzyl)-4,4-dimethylisoxazolidin-3-one]: in the data set on cuticula of apple leaves (setting [2]), the “Cuticle penetration 6 h in %” value is 21%, the “Cuticle penetration 12 h in %” value turned out to be 42% and the “Cuticle penetration 24 h in %” value came out at 62%. Moreover, in the data set on cuticula of apple leaves (setting [3]), the “Cuticle penetration 24 h in %” value is reported as 24% and the “Cuticle penetration 48 h in %” value stood at 73%. In the data set with cuticula of apple leaves (setting [4]), the “Cuticle penetration 6 h in %” value was found to be 27%, the “Cuticle penetration 12 h in %” value was found to be 29% and the “Cuticle penetration 24 h in %” value worked out at 31%.

As for `NC(=O)c1ccc(C(F)(F)F)nc1O` [Compound 3], in the data set with cuticula of apple leaves (setting [5]), the “Cuticle penetration 12 h in %” value is 0%, the “Cuticle penetration 24 h in %” value came out at 0% and the “Cuticle penetration 48 h in %” value is given as 0%.

Consider `CCCCC(CC)COP(=O)(OCC(CC)CCCC)OCC(CC)CCCC` (stereo not drawn) [TEHP, Tris(2-ethylhexyl) phosphate], for which the “Penetration enhancement (in words)” value in the data set on cuticula of apple leaves (mefenpyr-diethyl, summary of Tables 8 and 9) was “has better penetration-enhancing properties compared to TBEP in the combination”. In data set [1], the “Dynamic surface tension 20 ms” value is reported as 71.7 mN/m, the “Dynamic surface tension 50 ms” value is given as 71.7 mN/m, the “Dynamic surface tension 200 ms” value was 71.6 mN/m and the “Dynamic surface tension 500 ms” value worked out at 71.5 mN/m.

Turning to `CCCCOCCOP(=O)(OCCOCCCC)OCCOCCCC` [TBEP, Tributoxyethyl phosphate], the “Penetration enhancement (in words)” value in the data set on cuticula of apple leaves (bixlozone, summary of Table 7) was “shows distinctly lower uptake of bixlozone than TEHP”; in the data set on cuticula of apple leaves (tembotrione (Laudis SC), summary of Tables 5 and 6), “does not enhance the uptake of tembotrione”.

Regarding Ammonium sulfate [AMS], in the data set on cuticula of apple leaves (setting [6]), the “Cuticle penetration 24 h in %” value stood at 5% and the “Cuticle penetration 48 h in %” value is 15%.

In the case of `Cc1ccc2c(c1)C(Nc1nc3n(n1)CCCCS3)CCC2` (stereo not drawn) [Compound 6], in the data set with cuticula of apple leaves (setting [7]), the “Cuticle penetration 12 h in %” value turned out to be 0%, the “Cuticle penetration 24 h in %” value came out at 0% and the “Cuticle penetration 48 h in %” value stood at 2%.

For `Cc1ccc2c(c1)C(Nc1ncc(C(C)(C)O)cn1)[C@@H](C)C2` (stereo partly drawn) [Compound 5], in the data set on cuticula of apple leaves (setting [8]), the “Cuticle penetration 12 h in %” value stood at 6%, the “Cuticle penetration 24 h in %” value is listed as 14% and the “Cuticle penetration 48 h in %” value is 52%.

As for `CCC(=O)C1=C([O-])CC(C(=O)[O-])CC1=O.[Ca+2]` (stereo not drawn) [Prohexadione-Ca, Calcium 3-oxido-5-oxo-4-propionyl-cyclohex-3-enecarboxylate], in the data set with cuticula of apple leaves (setting [9]), the “Cuticle penetration 24 h in %” value was 18% and the “Cuticle penetration 48 h in %” value is recorded as 44%.

As for `Cn1nc(C(F)(F)F)c(CS(=O)(=O)C2=NOC(C)(C)C2)c1OC(F)F` [Pyroxasulfone, 3-[5-(Difluoromethoxy)-1-methyl-3-(trifluoromethyl)pyrazol-4-ylmethylsulfonyl]-4,5-dihydro-5,5-dimethyl-1,2-oxazole], the “Cuticle penetration 24 h in %” value in the data set on cuticula of apple leaves (apple, 24 h, 0.5 g/l) is 2%.

With `CCOC(=O)C1=NN(c2ccc(Cl)cc2Cl)C(C)(C(=O)OCC)C1` (racemic) [Mefenpyr-diethyl, Diethyl (RS)-1-(2,4-dichlorophenyl)-4,5-dihydro-5-methyl-1H-pyrazole-3,5-dicarboxylate], in the data set with cuticula of apple leaves (setting [10]), the “Cuticle penetration 12 h in %” value is given as 4%, the “Cuticle penetration 24 h in %” value worked out at 9% and the “Cuticle penetration 48 h in %” value was found to be 16%. In the data set on cuticula of apple leaves (setting [11]), the “Cuticle penetration 24 h in %” value is on record as 17% and the “Cuticle penetration 48 h in %” value is given as 59%.
